Measured values taken from patent US20220117845A1, “COMPOSITION AND CONTAINER, KIT, METHOD OF USE” (NTC S.R.L., priority 2019, published 2022).

Columns and labels:
[1] = Dissolution study as a function of the pH value of water; assay type: physicochemical; details: 150 g in 900 ml of water
From the text: The solubility of the mannitol powder was then studied in the following three types of non-carbonated commercial waters: • Sangemini: pH at source 6.2; • Antica Fonte Boario: pH at source 7.0; • Panna Toscana: pH at source 8.0.

[2] = Bulk density of the powder; assay type: physicochemical; details: after passing through drum centrifugal sieve shaker, mesh 3 mm clear span; measured in the laboratory
Description: As regards the bulk density outlined above, in particular the poured bulk density, such parameter is measured according to the European Pharmacopoeia reference standard (Ph. Eur.), current edition 2.2.42, in force at the priority date of this patent application. In the context of the present invention, the expression ‘bulk’ implies that the powder density value is calculated in a manner formally analogous to an absolute density (such as for a solid body or for a liquid). However, since a powder has empty inter-particle spaces, the total volume occupied by the powder (i.e. its outer bulk), thus including the inter-particle spaces between the various particles, should be taken into account when evaluating bulk density. More precisely, according to the aforementioned regulation, a 100 ml class A graduated flask is filled and brought to volume with the powder particles, after which the bulk density is calculated as the ratio between the weight of the powder contained in the flask and the volume (100 ml) occupied by that weight of the powder particles.

OC[C@@H](O)[C@@H](O)[C@H](O)[C@H](O)CO [mannitol]
time for complete dissolution ([1]; weakly acidic or neutral pH): more than 6 minutes | time for complete dissolution relative to weakly acidic or neutral pH ([1]; weakly basic pH): substantially half as much | transient density [2]: about 0.73 g/ml
